Data on eight compounds can be found in ChEMBL document CHEMBL3046098, “Effect of tropine derivatives, antimuscarinic agents, on the growth of Bombyx mori larvae” (1998).

Test [1] deals with Bombyx mori. Description: Insecticidal activity against Bombyx mori Shunrei x Shogetu fourth-instar larvae assessed as effect on larval growth at 100 ppm administered in diet relative to untreated control. The test is classed as functional, organism-based.
The test system of test [2] is Bombyx mori. Nature of the test: Insecticidal activity against Bombyx mori Shunrei x Shogetu fourth-instar larva assessed as effect on larval molting at 160 ug/larvae upon topial application. The test is classed as functional, organism-based.
Test [3] concerns Bombyx mori. Nature of the test: Insecticidal activity against Bombyx mori Shunrei x Shogetu fourth-instar larvae assessed as induction of delay in 4th ecdysis at 100 ug/larva applied daily through topical route (reference value: 4.3 +/- 0.48 days). It counts as functional.
For test [4], the system named is Bombyx mori. Nature of the test: Insecticidal activity against Bombyx mori Shunrei x Shogetu fourth-instar larvae assessed as incidence of prolongation of 4th ecdysis at 30 ppm administered in diet relative to untreated control. The test is classed as functional.
In test [5] the test system is Bombyx mori. Description: Effect on feeding in Bombyx mori Shunrei x Shogetu fourth-instar larvae assessed as change in quantity of excrement at 10 to 30 ppm administered in diet relative to untreated control. It counts as functional, organism-based.
Test [6] has as its system Bombyx mori. Description: Insecticidal activity against Bombyx mori Shunrei x Shogetu fourth-instar larva assessed as effect on larval growth at 160 ug/larvae upon topial application. It counts as functional, organism-based.
Test [7] has as its system Bombyx mori. Nature of the test: Insecticidal activity against Bombyx mori Shunrei x Shogetu fourth-instar larvae assessed as induction of delay in 4th ecdysis at 10 to 30 ppm administered in diet relative to untreated control. It counts as functional.

Activity calls are given as the source filed them. The calls are words filed in the database; no cut-off is given here.

Consider `O=C(O)CC(c1ccccc1)c1ccccc1`, for which the outcome in the test with Bombyx mori [1] was inactive.

On to `CN1C2CC[C@@H]1C[C@@H](OC(=O)C(C)(c1ccccc1)c1ccccc1)C2` (single isomer, unassigned), for which the result in the test with Bombyx mori [2], in the test with Bombyx mori [5] and with Bombyx mori [6] was inactive. For the same compound, the Time with Bombyx mori [3] worked out at 5.3 days. Moreover, in the test on Bombyx mori [4], the Activity is reported as 40%.

For the compound `CN1C2CC[C@@H]1C[C@@H](OC(=O)C(C)(C)C)C2` (single isomer, unassigned), the result in the test on Bombyx mori [2] and in the test on Bombyx mori [6] was inactive.

On to `CN1C2CC[C@@H]1C[C@@H](OC(=O)C(c1ccccc1)c1ccccc1)C2` (single isomer, unassigned), for which the outcome in the test on Bombyx mori [2] and in the test on Bombyx mori [6] was inactive.

For the compound `CN1C2CC[C@@H]1C[C@@H](OC(=O)CC(c1ccccc1)c1ccccc1)C2` (single isomer, unassigned), the result with Bombyx mori [2], with Bombyx mori [1] and with Bombyx mori [6] was inactive.

Take `CN1C2CC[C@@H]1C[C@@H](OC(=O)c1ccc(Cl)cc1Cl)C2` (single isomer, unassigned): the result in the test with Bombyx mori [2] and with Bombyx mori [6] was inactive.

With `CN1C2CC[C@@H]1C[C@@H](OC(=O)c1ccc3ccccc3c1)C2` (single isomer, unassigned), the outcome with Bombyx mori [2] and in the test on Bombyx mori [6] was inactive.

In the case of `CN1[C@@H]2CC[C@H]1C[C@@H](OC(=O)C(CO)c1ccccc1)C2` (stereo not given in full) [ATROPINE], the Time in the test with Bombyx mori [3] was 4.7 days; with Bombyx mori [7], 1 days. Further, the outcome with Bombyx mori [5] was inactive.
